# Where two headings read alike, the source gives them in different places.
# What was measured:
# P. falciparum 3D7 [1] = assay: in vitro growth inhibition of P. falciparum 3D7 over one asexual cycle; type: cell-based; conditions: Plasmodium falciparum
# Excerpt: This nonlinear regression curve is representative of seven assays, each performed in triplicate.
# P. falciparum 7G8 = assay: in vitro growth inhibition of P. falciparum 7G8; type: cell-based; conditions: Plasmodium falciparum
# P. falciparum W2mef = assay: microbe, parasite or virus in culture; type: cell-based; conditions: Plasmodium falciparum; for IC50: read-out: IC50 (mean ± 95% confidence interval)
# P. knowlesi H1 = assay: in vitro growth inhibition of P. knowlesi H1 cultured in rhesus erythrocytes; type: cell-based; conditions: Plasmodium knowlesi, Erythrocyte, in Macaca mulatta
# Excerpt: (§1) To identify a relationship between senicapoc activity and human erythrocytes, P. knowlesi H1 cultured in rhesus erythrocytes and P. knowlesi YH-1 adapted for culture in human erythrocytes were each treated with senicapoc. There was no difference between the senicapoc IC50s for H1 and YH-1 (P=0.14) (Table 1). Senicapoc was similarly effective against parasitized human and rhesus erythrocytes.
# P. knowlesi YH-1 = assay: in vitro growth inhibition of P. knowlesi YH-1 adapted for culture in human erythrocytes; type: cell-based; conditions: Plasmodium knowlesi, Erythrocyte
# Excerpt: as §1
# human Plasmodium strains = assay: in vitro growth inhibition, all human Plasmodium strains tested; type: cell-based
# P. falciparum 3D7 [2] = assay: growth inhibition through the 48-hour asexual blood stage by microscopy and flow cytometry; type: cell-based, Plasmodium falciparum; conditions: P<0.008
# Procedure: Parasitemia was determined by flow cytometry and confirmed with microscopy (not shown). […] Data presented are representative of three replicates.
# Mean fluorescence intensity (WI), determined by flow cytometry, is shown as a measure of parasite viability. […] The data point for “No drug” at 48 h was gated for schizonts only (20% of infected cells) to eliminate signal from reinvaded ring-stage parasites. Data for other time points were not gated, as schizonts represented 5% of infected cells.
# To determine senicapoc's activity through the 48-hour asexual blood stage of the parasite, growth inhibition of P. falciparum 3D7 was characterized throughout the cycle by microscopy and flow cytometry.
# P. yoelii 17X-NL = assay: in vivo efficacy against blood-stage parasites in infected C57BL/6 mice
# Procedure: C57BL/6 mice infected with P. yoelii 17X-NL were treated by gavage with vehicle or senicapoc 400 or 800 mg/kg daily from days 2 to 10 post-infection (highlighted area) to mimic a preventive therapy.
# FIG. 7 is a line graph showing senicapoc suppressed parasite growth in an in vivo murine model following established infection. C57BL/6 mice infected with P. yoelii 17X-NL were treated with vehicle or senicapoc 400 mg/kg twice daily from day 8 to day 15 postinfection (highlighted area) to mimic treatment of an active infection.
# To establish in vivo efficacy against blood-stage parasites, C57BL/6 mice infected with P. yoelii 17X-NL (nonlethal strain) were treated with vehicle or senicapoc. […] Parasitemia increased after the drug was stopped (FIG. 6).
# P. yoelii = type: in vivo; conditions: IK-1-/- mice, 400 mg/kg twice daily, days 8 to 15
# Procedure: IK-1^−/− and IK-1^+/+ mice were treated with senicapoc twice daily on postinoculation days 8 to 15 (highlighted area).
# To test whether senicapoc targets the Gardos channel in malaria-infected erythrocytes, we assessed the ability of P. yoe-lii to grow in the presence and absence of the channel in vivo using a Gardos knockout (IK-1^−/−) mouse model (Shmukler B E, Hsu A, Alves J, Trudel M, Rust M B, Hubner C A, Rivera A, Alper S L. 2013. N-ethylmaleimide activates a Cl(−)-independent component of K(+) flux in mouse erythrocytes. Blood Cells Mol Dis 51:9-16 and Rifler M, Bobbala D, Koka S, Boini K M, Mahmud H, Kasinathan R S, Shumilina E, Amann K, Beranek G, Sausbier U, Ruth P, Sausbier M, Lang F, Huber S M. 2010. […] The inventors then assessed the effectiveness of senicapoc in the presence and absence of the channel in vivo. P. yoelii-infected IK-1^−/− and IK-1^+/+ mice were treated with senicapoc 400 mg/kg twice daily.
# [3] = patients with sickle cell disease; cited from earlier work
# [4] = primates, daily doses of 1,000 mg/kg for 9 months; cited from earlier work
# [5] = canines; cited from earlier work
# [6] = cited from earlier work
# [7] = patients with SCD; cited from earlier work
# [8] = human and animal studies for SCD; cited from earlier work
# [9] = P. falciparum 3D7, read-out: IC50 (mean ± 95% confidence interval)
# [10] = P. falciparum 7G8, Res CQ, read-out: IC50 (mean ± 95% confidence interval)
# [11] = read-out: IC90 (mean ± 95% confidence interval)
# [12] = read-out: IC50 (mean ± 95% confidence interval)
smiles,measurement,setting,value
"CCN(CC)CCCC(C)Nc1ccnc2cc(Cl)ccc12 (stereo not drawn) [CQ, chloroquine]",IC50,"P. falciparum 3D7 [1]; 3D7, read-out: IC50 (mean ± 95% confidence interval)",0.0156 ± 0.00331 µM
same,IC50,"P. falciparum 7G8; 7G8, read-out: IC50 (mean ± 95% confidence interval)",0.0979 ± 0.0204 µM
same,IC50,P. falciparum W2mef,0.316 ± 0.135 µM
"C[C@H]1[C@@H](O)O[C@@H]2O[C@@]3(C)CC[C@H]4[C@H](C)CC[C@@H]1[C@@]24OO3 [DHA, dihydroartemisinin]",IC50,P. falciparum 3D7 [1]; [9],0.00273 ± 0.00155 µM
same,IC50,P. falciparum 7G8; [10],0.00165 ± 0.00124 µM
same,IC50,P. falciparum W2mef,0.00516 ± 0.00428 µM
"NC(=O)C(c1ccccc1)(c1ccc(F)cc1)c1ccc(F)cc1 [senicapoc, 2,2-bis(4-fluorophenyl)-2-phenylacetamide]",IC50,P. falciparum 3D7 [1]; [9],6.74 ± 0.25 µM
same,IC90,"P. falciparum 3D7 [1]; P. falciparum 3D7, read-out: IC90 (mean ± 95% confidence interval)",10.2 ± 2.07 µM
same,IC50,"P. falciparum 3D7 [1]; blood-stage P. falciparum 3D7, FIG. 1, read-out: IC50",6.7 µM
same,IC50,P. falciparum 7G8; [10],10.9 ± 2.3 µM
same,IC90,"P. falciparum 7G8; P. falciparum 7G8, Res CQ, read-out: IC90 (mean ± 95% confidence interval)",22.3 ± 9.52 µM
same,IC50,P. falciparum W2mef,9.24 ± 3.13 µM
same,IC90,P. falciparum W2mef; [11],12.3 ± 1.82 µM
same,IC50,P. knowlesi H1; [12],17.5 ± 6.74 µM
same,IC90,P. knowlesi H1; [11],31.4 ± 11.8 µM
same,IC50,P. knowlesi YH-1; [12],11 ± 1.38 µM
same,IC90,P. knowlesi YH-1; [11],37.4 ± 1.19 µM
same,IC90 higher than the IC50,human Plasmodium strains,< 2 fold
same,Nucleic acid content measured by mean fluorescence intensity (MFI),"P. falciparum 3D7 [2]; at 36 h, treated cultures",weaker
same,Parasitemia measured by flow cytometry,"P. falciparum 3D7 [2]; by 48 h postinvasion, treated cultures compared to control",reduced
same,parasitemia,"P. yoelii 17X-NL; prophylaxis on postinoculation days 2 to 10, by day 10, vehicle 12%, P=0.04",4.3%
same,parasitemia,"P. yoelii 17X-NL; treatment 400 mg/kg twice daily on postinoculation days 8 to 15, beyond day 13, not statistically significant (P=0.058)",lower parasitemia
same,activity against P. yoelii,P. yoelii,active
same,peak concentrations achieved in human trials,[3],337 nM
same,tolerability,[4],well tolerated
same,serum concentrations at which cardiotoxicity developed,[5],exceeded 18 M
same,protein binding,[6],highly protein bound
same,frequency of vasoocclusive pain episodes,[7],failed to modify
same,physiological disease markers,[7],improved
same,tolerability,[8],well tolerated
"OC(c1cc(C(F)(F)F)nc2c(C(F)(F)F)cccc12)C1CCCCN1 (stereo not drawn) [MQ, mefloquine]",IC50,P. falciparum 3D7 [1]; [9],0.0101 ± 0.00783 µM
same,IC50,P. falciparum 7G8; [10],0.00363 ± 0.00058 µM
same,IC50,P. falciparum W2mef,0.0267 ± 0.0155 µM
